Measured values: patent publication US6737383B1, “Herbicidal oxadiazolidines” (priority 1999, dated 2004)

Legend:
Alexandergrass = experiment: Test D Alexandergrass; assay type: in vivo, Brachiaria plantaginea; conditions: Preemergence, 0 to 100 scale
Summary of the method: (§1)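 Seeds were sown in greenhouse pots, one species per pot or compartment. Compounds were in a non-phytotoxic solvent mixture with surfactant; preemergence applications went on the sandy loam surface within one day of planting. Injury was rated visually after 14 to 21 days, 0 (none) to 100 (complete control).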

bermuda-grass = experiment: Test D bermudagrass; assay type: in vivo, Cynodon dactylon; conditions: Preemergence, 0 to 100 scale
Summary of the method: as §1

common pursiane = experiment: Test D common purslane; assay type: in vivo, Portulaca oleracea; conditions: Preemergence, 0 to 100 scale
Summary of the method: as §1

common ragweed = experiment: Test D common ragweed; assay type: in vivo, Ambrosia elatior; conditions: Preemergence, 0 to 100 scale
Summary of the method: as §1

common groundsel = experiment: Test D common groundsel; assay type: in vivo, Senecio vulgaris; conditions: Preemergence, 0 to 100 scale
Summary of the method: as §1

dallisgrass = experiment: Test D dallisgrass; assay type: in vivo, Paspalum dilatatum; conditions: Preemergence, 0 to 100 scale
Summary of the method: as §1

goosegrass = experiment: Test D goosegrass; assay type: in vivo, Eleusine indica; conditions: Preemergence, 0 to 100 scale
Summary of the method: as §1

itchgrass = experiment: Test D itchgrass; assay type: in vivo, Rottboellia exaltata; conditions: Preemergence, 0 to 100 scale
Summary of the method: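 Scoring used a 0–100 visual injury scale, with 0 meaning no effect and 100 complete control, assessed 14–21 days after application alongside untreated pots. Preemergence treatments went onto sandy loam surfaces of separately potted seeds within a day of sowing.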

Johnson grass = experiment: Test D Johnson grass; assay type: in vivo, Sorghum halepense; conditions: Preemergence, 0 to 100 scale
Summary of the method: as §1

large crabgrass = experiment: Test D large crabgrass; assay type: in vivo, Digitaria sanguinalis; conditions: Preemergence, 0 to 100 scale
Summary of the method: as §1

pitted morningglory = experiment: Test D pitted morningglory; assay type: in vivo, Ipomoea lacunosa; conditions: Preemergence, 0 to 100 scale
Summary of the method: as §1

purple nutsedge = experiment: Test D purple nutsedge; assay type: in vivo, Cyperus rotundus; conditions: Preemergence, 0 to 100 scale
Summary of the method: as §1

sandbur = experiment: Test D sandbur; assay type: in vivo, Cenchrus echinatus; conditions: Preemergence, 0 to 100 scale
Summary of the method: as §1

Spanishneedles = experiment: Test D Spanishneedles; assay type: in vivo, Bidens bipinnata; conditions: Preemergence, 0 to 100 scale
Summary of the method: as §1

surinam grass = experiment: Test D surinam grass; assay type: in vivo, Brachiaria decumbens; conditions: Preemergence, 0 to 100 scale
Summary of the method: as §1

Green foxtail [1] = experiment: Test D green foxtail; assay type: in vivo; conditions: Preemergence, 0 to 100 scale
Summary of the method: as §1

Green foxtail [2] = experiment: Test D green foxtail; assay type: in vivo
Summary of the method: as §1

[3] = Rate 16 g/ha, 0 no injury, 100 complete control
[4] = Rate 32 g/ha, 0 no injury, 100 complete control
[5] = Rate 64 g/ha, 0 no injury, 100 complete control
[6] = Rate 125 g/ha, 0 no injury, 100 complete control
[7] = Rate 64 g/ha, Preemergence; 0 to 100 scale, 0 no injury, 100 complete control
[8] = Rate 125 g/ha, Preemergence; 0 to 100 scale, 0 no injury, 100 complete control

## COc1ccccc1-n1c(=O)on(C(=O)N(c2ccc(F)cc2)C(C)C)c1=O [Compound 30]
Alexandergrass; [3]
  Plant response rating, Alexandergrass: 0
Alexandergrass; [4]
  Plant response rating, Alexandergrass: 0
Alexandergrass; [5]
  Plant response rating, Alexandergrass: 40
Alexandergrass; [6]
  Plant response rating, Alexandergrass: 50
Alexandergrass; Rate 250 g/ha
  Plant response rating, Alexandergrass: 80
Alexandergrass; Rate 500 g/ha
  Plant response rating, Alexandergrass: 90
bermuda-grass; [3]
  Plant response rating, Bermudagrass: 50
bermuda-grass; [4]
  Plant response rating, Bermudagrass: 65
bermuda-grass; [5]
  Plant response rating, Bermudagrass: 98
bermuda-grass; [6]
  Plant response rating, Bermudagrass: 98
bermuda-grass; Rate 250 g/ha
  Plant response rating, Bermudagrass: 98
bermuda-grass; Rate 500 g/ha
  Plant response rating, Bermudagrass: 100
Common pursiane; [3]
  Plant response rating, C. purslane: 0
Common pursiane; [4]
  Plant response rating, C. purslane: 0
Common pursiane; [5]
  Plant response rating, C. purslane: 0
Common pursiane; [6]
  Plant response rating, C. purslane: 0
Common pursiane; Rate 250 g/ha
  Plant response rating, C. purslane: 0
Common pursiane; Rate 500 g/ha
  Plant response rating, C. purslane: 0
Common ragweed; [3]
  Plant response rating, C. ragweed: 0
Common ragweed; [4]
  Plant response rating, C. ragweed: 0
Common ragweed; [5]
  Plant response rating, C. ragweed: 0
Common ragweed; [6]
  Plant response rating, C. ragweed: 0
Common ragweed; Rate 250 g/ha
  Plant response rating, C. ragweed: 0
Common ragweed; Rate 500 g/ha
  Plant response rating, C. ragweed: 0
Common groundsel; [3]
  Plant response rating, Com. groundsel: 0
Common groundsel; [4]
  Plant response rating, Com. groundsel: 0
Common groundsel; [5]
  Plant response rating, Com. groundsel: 0
Common groundsel; [6]
  Plant response rating, Com. groundsel: 0
Common groundsel; Rate 250 g/ha
  Plant response rating, Com. groundsel: 0
Common groundsel; Rate 500 g/ha
  Plant response rating, Com. groundsel: 100
dallisgrass; [3]
  Plant response rating, Dallisgrass: 0
dallisgrass; [4]
  Plant response rating, Dallisgrass: 0
dallisgrass; [5]
  Plant response rating, Dallisgrass: 50
dallisgrass; [6]
  Plant response rating, Dallisgrass: 60
dallisgrass; Rate 250 g/ha
  Plant response rating, Dallisgrass: 80
dallisgrass; Rate 500 g/ha
  Plant response rating, Dallisgrass: 100
goosegrass; [3]
  Plant response rating, Goosegrass: 30
goosegrass; [4]
  Plant response rating, Goosegrass: 40
goosegrass; [5]
  Plant response rating, Goosegrass: 70
goosegrass; [6]
  Plant response rating, Goosegrass: 85
goosegrass; Rate 250 g/ha
  Plant response rating, Goosegrass: 85
goosegrass; Rate 500 g/ha
  Plant response rating, Goosegrass: 98
itchgrass; [3]
  Plant response rating, Itchgrass: 20
itchgrass; [4]
  Plant response rating, Itchgrass: 20
itchgrass; [5]
  Plant response rating, Itchgrass: 40
itchgrass; [6]
  Plant response rating, Itchgrass: 75
itchgrass; Rate 250 g/ha
  Plant response rating, Itchgrass: 75
Johnson grass; [3]
  Plant response rating, Johnsongrass: 0
Johnson grass; [4]
  Plant response rating, Johnsongrass: 0
Johnson grass; [5]
  Plant response rating, Johnsongrass: 0
Johnson grass; [6]
  Plant response rating, Johnsongrass: 0
Johnson grass; Rate 250 g/ha
  Plant response rating, Johnsongrass: 0
Johnson grass; Rate 500 g/ha
  Plant response rating, Johnsongrass: 40
Large crabgrass; [3]
  Plant response rating, Large crabgrass: 40
Large crabgrass; [4]
  Plant response rating, Large crabgrass: 40
Large crabgrass; [5]
  Plant response rating, Large crabgrass: 85
Large crabgrass; [6]
  Plant response rating, Large crabgrass: 98
Large crabgrass; Rate 250 g/ha
  Plant response rating, Large crabgrass: 98
Large crabgrass; Rate 500 g/ha
  Plant response rating, Large crabgrass: 100
Pitted morningglory; [3]
  Plant response rating, P. morninglory: 0
Pitted morningglory; [4]
  Plant response rating, P. morninglory: 0
Pitted morningglory; [5]
  Plant response rating, P. morninglory: 0
Pitted morningglory; [6]
  Plant response rating, P. morninglory: 0
Pitted morningglory; Rate 250 g/ha
  Plant response rating, P. morninglory: 0
Pitted morningglory; Rate 500 g/ha
  Plant response rating, P. morninglory: 0
Purple nutsedge; [3]
  Plant response rating, Purple nutsedge: 0
Purple nutsedge; [4]
  Plant response rating, Purple nutsedge: 0
Purple nutsedge; [5]
  Purple nutsedge plant response rating: 0
Purple nutsedge; [6]
  Purple nutsedge plant response rating: 0
Purple nutsedge; Rate 250 g/ha
  Plant response rating, Purple nutsedge: 0
Purple nutsedge; Rate 500 g/ha
  Plant response rating, Purple nutsedge: 0
sandbur; [3]
  Plant response rating, Sandbur: 0
sandbur; [4]
  Plant response rating, Sandbur: 0
sandbur; [5]
  Sandbur plant response rating: 0
sandbur; [6]
  Sandbur plant response rating: 40
sandbur; Rate 250 g/ha
  Plant response rating, Sandbur: 40
sandbur; Rate 500 g/ha
  Plant response rating, Sandbur: 100
Spanishneedles; [3]
  Plant response rating, Spanishneedles: 0
Spanishneedles; [4]
  Plant response rating, Spanishneedles: 0
Spanishneedles; [5]
  Spanishneedles plant response rating: 0
Spanishneedles; [6]
  Spanishneedles plant response rating: 0
Spanishneedles; Rate 500 g/ha
  Plant response rating, Spanishneedles: 0
Surinam grass; [4]
  Plant response rating, Surinam grass: 40
Surinam grass; [5]
  Surinam grass plant response rating: 40
Surinam grass; [6]
  Surinam grass plant response rating: 40
Surinam grass; Rate 250 g/ha
  Plant response rating, Surinam grass: 85
Surinam grass; Rate 500 g/ha
  Plant response rating, Surinam grass: 85
Green foxtail [1]; Rate 250 g/ha
  Plant response rating, Green foxtail: 100
Green foxtail [1]; Rate 500 g/ha
  Plant response rating, Green foxtail: 100
Green foxtail [2]; Preemergence; Rate 16 g/ha; 0 to 100 scale, 0 no injury, 100 complete control
  Plant response rating, Green foxtail: 0
Green foxtail [2]; Preemergence; Rate 32 g/ha; 0 to 100 scale, 0 no injury, 100 complete control
  Plant response rating, Green foxtail: 50
Green foxtail [2]; Rate 16 g/ha; Preemergence; 0 to 100 scale, 0 no injury, 100 complete control
  Plant response rating, Green foxtail: 0
Green foxtail [2]; [7]
  Green foxtail plant response rating: 85
  Plant response rating, Green foxtail: 85
Green foxtail [2]; [8]
  Green foxtail plant response rating: 85
  Plant response rating, Green foxtail: 85
Green foxtail [2]; Rate 250 g/ha; Preemergence; 0 to 100 scale
  Plant response rating, Green foxtail: 100
Green foxtail [2]; Rate 500 g/ha, Preemergence; 0 to 100 scale
  Plant response rating, Green foxtail: 100
